Results reported in US9988371B2, “Benzimidazole analogues and related methods” (The Arizona Board of Regents, on Behalf of the University …, priority 2014, dated 2018).
pIC50: −log10 of the molar value. “Also recorded” adds a separate entry of the source. Where two headings read alike, the source gives them in different places.

Key:
[1] = system: RET (RET/C634Y, RET/M918T, RET/C634W, RET/PTC1, RET/PTC3, KIF5B-RET, RET/C634R-V804M); assay: RET auto-phosphorylation immunoblot, all cell lines and mutations tested; format: cell-based
Protocol: FIG. 1: Photographs of blots showing inhibition of phosphorylation of RET/C634Y and RET/M918T in intact cells by Pz-1 or vehicle (NT: not treated). Serum-starved NIH3T3 cells expressing RET/C634Y or RET/M918T mutants were treated for 2 hr with indicated concentrations of Pz-1. 50 μg of total cell lysates were subjected to immunoblotting with anti-phospho-Y1062 (αp1062) or anti-phospho-Y905 (αp905) RET antibodies. The blots were normalized using anti-RET (αRET) antibodies.
FIG. 2: Photographs of blots showing inhibition of phosphorylation of gate-keeper RET point mutant and rearranged RET oncoproteins by Pz-1 or vehicle (NT: not treated). HEK293 cells were transiently transfected with vectors expressing RET/C634R-V804M mutant (V804 is the gate-keeper RET residue), or RET/PTC1 (CCDC6-RET, found in papillary thyroid carcinoma and lung adenocarcinoma), RET/PTC3 (NCOA4-RET, found in papillary thyroid carcinoma and lung adenocarcinoma), or KIF5B-RET (found in lung adenocarcinoma). After 36 hr from transfection, cells were serum-starved for 12 hr and then treated for 2 hr with indicated concentrations of Pz-1. 50 μg of total cell lysates were subjected to immunoblotting with anti-phospho-Y1062 (αp1062) and anti-phospho-Y905 (αp905) RET antibodies. The blots were normalized using anti-RET (αRET) antibody.
FIG. 3: Photographs of blots showing inhibition of RET protein endogenously expressed in TT cells (human MTC cell line expressing RET/C634W) by indicated concentrations of Pz-1 or vehicle (NT: not treated) and reduced effects in thyroid non-transformed Nthy-ori-3-1 cells. […]
The inhibition of RET auto-phosphorylation by Pz-1 was measured in several different cell lines including NIH3T3 fibroblasts expressing RET/C634Y or RET/M918T, TT expressing RET/C634W (MTC), Nthy-ory-3-1 (thyroid, non-transformed with RET; negative control), HEK293/RET/PTC1 (CCDC6-RET that can be found in PTC & lung cancer), HEK293/RET-KIF5B (that can be found in lung cancer), HEK293/RET/PTC3 (NCOA4-RET, that can be found in PTC & lung cancer), and HEK293 transfected with RET/C634R-V804M (FIGS. 1-3). […]

CYP2D6 = CYP2D6 (Homo sapiens, UniProt P10635); assay: CYP inhibition; format: in vitro ADME; details: read-out: CYP 2D6 IC50
Sequence of CYP2D6 (P10635 whole entry): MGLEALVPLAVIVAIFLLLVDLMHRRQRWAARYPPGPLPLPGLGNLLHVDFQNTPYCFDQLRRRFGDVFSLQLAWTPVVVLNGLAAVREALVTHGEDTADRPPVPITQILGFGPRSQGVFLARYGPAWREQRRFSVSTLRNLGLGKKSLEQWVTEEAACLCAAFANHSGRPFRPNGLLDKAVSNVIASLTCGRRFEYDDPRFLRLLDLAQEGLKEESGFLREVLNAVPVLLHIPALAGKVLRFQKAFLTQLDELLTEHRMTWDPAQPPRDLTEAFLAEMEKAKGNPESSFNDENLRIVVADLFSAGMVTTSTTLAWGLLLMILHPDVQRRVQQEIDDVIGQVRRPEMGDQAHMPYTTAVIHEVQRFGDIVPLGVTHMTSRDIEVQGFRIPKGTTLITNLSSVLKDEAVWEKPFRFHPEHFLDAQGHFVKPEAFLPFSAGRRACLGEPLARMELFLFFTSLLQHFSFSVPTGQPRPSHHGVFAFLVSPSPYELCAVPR

PK study in mice = format: in vivo; details: for half-life: mouse, in vivo
Protocol: For PK studies of Pz-1 in animals, a solution formulation for oral administration was created in 500 μL of polysorbate 80, 500 μL of EtOH, and 1.0 mL of pH 2 buffer. For the toxicity studies, a suspension formulation was developed in tween 20 (20%) and xanthan gum (0.125%).
T112 (3-4 hrs) in rats was in line with T1/2 in mice (4.2 hrs).

With `Cn1cc(-c2ccc3c(c2)ncn3-c2ccc(CC(=O)Nc3cc(C(C)(C)C)on3)cc2)cn1` [Pz-1, N-(5-(tert-butyl)isoxazol-3-yl)-2-(4-(5-(1-methyl-1H-pyrazol-4-yl)-1H-benzo[d]imidazol-1-yl)phenyl)acetamide] the “inhibition of pRET” value ([1]; 1 nM, 2 hrs, all cell-lines) was “strong inhibition; also recorded: strongly inhibited”, the “concentration at which potent on RET and all tested RET mutants including RET/V804M” value ([1]; FIGS. 1-3) was “less than 1 nM” and the “inhibition of RET auto-phosphorylation” value ([1]; nanomolar concentrations, all cell lines and mutations tested) was 90%. The pIC50 (CYP2D6) was 4.86, the AUC (PK study in mice; 2 mg/kg, solution formulation) was 6.5 µg/h/mL and the half-life (PK study in mice; oral, read-out: T1/2 (converted)) was 4.2 h. It also gave a half-life (PK study in mice; po, 2 mg/kg, read-out: elimination half-life (converted)) of 3.8 h.
